In US20030060469A1, “Use of substances that act as cascade inhibitors of the raf/mek/erk signal cascade, for producing a medicament to treat dna and rna viruses” (priority 2000, published 2003):
Where two headings read alike, the source gives them in different places.

Assays:
[1] = mouse model; oral administration; up to a cumulating dose of 6 g/kg body weight; cited from earlier work
[2] = tested on: Borna disease virus (BDV)
MDCK cells = details: concentrations corresponding to the infection test (up to 50 μM), macroscopic examination and propidium iodide staining
[3] = tested on: influenza A virus stem WSN-HK

| Structure (SMILES) | signs of toxicity [1] | virus foci (spreading of BDV infection) ([2]; administration of 6 μM, compared to untreated infectious reference cells) | virus foci (spreading of BDV infection) ([2]; administration of 12.5 μM) | virus foci (spreading of BDV infection) ([2]; one-time administration of 25 μM, cultivation time of 7 days) | cytotoxic effect on the cells (MDCK cells) | reduction of the number of newly generated infectious virus particles in the cell culture medium [3] |
| --- | --- | --- | --- | --- | --- | --- |
| O=C(NOCC1CC1)c1ccc(F)c(F)c1Nc1ccc(I)cc1Cl [PD184352, 2-(2-chloro-4-iodo-phenylamino)-N-cyclopropyl-methoxy-3,4-difluoro-benzamide] | without showing any significant signs of toxicity |  |  |  |  |  |
| N#CC(=C(N)Sc1ccccc1N)C(C#N)=C(N)Sc1ccccc1N [U0126, 1,4-diamino-2,3-dicyano-1,4-bis[2-aminophenylthio]butadiene] |  | no difference of the virus foci | the effect is not clear anymore | no virus foci are visible | neither solvent nor inhibitor have a significant cytotoxic effect on the cells | approx. 80% |
